Where “and” joins values, the source holds several entries; their conditions need not be identical. Equal values may be shown once.

One assay deals with human primary PMNs. Put plainly: Static adhesion of human primary PMNs to ICAM-1 with signaling inhibitors. Format: cell-based. To be noted: 10 μM Aβ, 1 min; listed as Aβ oligo. As for the experimental part: As a model system, human primary PMNs were isolated form healthy donors stimulated to very rapid adhesion to purified human ICAM-1, ligand for the β2 integrins LFA-1 and Maci. fMLP (the classical chemoattractant) was the positive control. […] PMNs were treated for 30 min. with different concentrations of inhibitors followed by stimulation for 1 min with 50 nM fMLP or with 10 μM Aβ. The number of adherent cells was quantified by computer-assisted evaluation. Statistical analysis was SD.

The test system of assay [1] is Bend.3 endothelial cell line. Nature of the assay: Adhesion molecule expression on Bend.3 endothelial cells (immunofluorescence). To be noted: Bend.3 cells, 10 μM Aβ1-42 oligomers, 18 h. The class given is cell-based, mouse. Also on record: key: −: VCAM-1 and selectins were not expressed (indicated by -, Table 2); constitutively expressed at low levels on endothelial cells (indicated by +/−, some vessels were positive for ICAM-1, Table 2); an increase of ICAM-1 expression (indicated by +, Table 2). As to the method: We performed in vitro experiments to study the effect of soluble Aβ1-42 oligomers on the endothelial cell line Bend.3, derived from mouse cerebral cortex purchased by ATCC& Cell Biology Collection (CRL-2299TM).
Briefly, Bend.3 were cultured at a concentration of 20×10^3/ml on a glass coverslip in 24-well plates containing DMEM supplemented with 10% Fetal Calf Serum (FCS). Cells were stimulated with 10 μM Aβ 1-42, for 18 h in DMEM with 1% FCS. […] positive control, cells were treated with 25 U/ml of TNFα for 18 h in DMEM with 1% FCS. Bend.3 were rinsed with PBS and fixed with 4% PFA for 10 minutes. Cells were washed with PBS incubated with blocking buffer for 1 h at RT° C. Primary antibodies were diluted in 1% Bovine Serum Albumin (BSA) PBS. Cells were incubated overnight at 4° C. with 50 μg/ml anti-VCAM (hybridoma MK2.7), 10 μg/ml anti-ICAM (hybridoma YN1.7), 0.5 μg/ml anti-CD31 (370700, Invitrogen), 5 μg/ml anti-E-selectin (hybridoma RME-1) and 1.5 μg/ml anti-P-selectin (CD62P, BD Pharmigen). The day after, cells were rinsed 2 times with PBS and then incubated with 7.5 μg/ml biotinylated secondary antibody (rabbit anti-rat, T0226, VectorLab) for 1 h at RT° C. Cells were rinsed 2 times with PBS and incubated with 25 μg/ml Avidin-TexasRed (A2006, Vector Lab) for 1 h at RT° C. in the dark. After rinsing in PBS, cells were incubated with 1 μg/ml Dapi (D9542, Sigma-Aldrich, St. Louis, Mo.), for 5 minutes in the dark. Finally, glass coverslip was transferred on glass slides and mounted with Dako medium (S3023, DAKO NORTH AMERICA, Carpinteria, Calif.). Glass slides were kept at 4° C. in the dark and acquired by LEICA fluorescence microscopy (DM6000B, LEICA, Germany).
We analyzed the expression of VCAM-1, ICAM-1, E- and P-selectin on Bend.3 after Aβ1-42 oligomers stimulation. TNF-α stimulation, which is well known to up-regulate the adhesion molecules expression, was used as positive control. We evaluated a dose-response effect of Aβ1-42 soluble oligomers on Bend.3 cells, ranging from 1 to 10 μM after 6 or 18 hours of treatment. After 18 h of treatment with 10 μM Aβ we observed a significant up-regulation of […] compared to non-stimulated control cells (CTRL) (Table 2). […] ICAM-1 was constitutively expressed at low levels on endothelial cells (indicated by +/−, some vessels were positive for ICAM-1, Table 2), but 18 h treatment with Aβ1-42 led to an increase of ICAM-1 expression (indicated by +, Table 2).

The next assay relates to lymphocytes. Put plainly: Rapid adhesion in lymphocytes. The class given is cell-based. Conditions: lymphocytes lack fMLP receptors, result in words. As for the experimental part: (§1) It is known that one of the receptors for Aβ is the receptor for fMLP, formylpeptide chemotactic receptor (FPR). To evaluate the contribution of this GPCR receptor on Aβ-dependent neutrophil adhesion, we inhibited its function using boc-MLF, a formyl-peptide chemotactic receptor antagonist. Human neutrophils were incubated for 2 minutes with buffer (control) or with oligomeric Aβ. 0.1 μM fMLP was used as a positive control. Values are expressed as the mean counts of bound cells in 0.2 mm^2 from three independent experiments in duplicate. Error bars represent SD. […] To exclude the possibility that rapid adhesion triggering was a consequence of a generic plasma membrane alteration due to the lipophilic nature of Aβ, we evaluated rapid adhesion in lymphocytes, which are known to lack fMLP receptors.

The next assay has as its system human neutrophils. Nature of the assay: Rapid human neutrophil adhesion to ICAM-1, inhibition by bocMLF and PTx. Format: cell-based. To be noted: oligomeric Aβ, 2 minutes. As for the experimental part: as §1

“Abeta 1-42: soluble oligomeric amyloid-beta 1-42 peptide used as stimulus”: the “Adherent hPMNs to ICAM-1, Aβ oligo, Mean, Control (no inhibitor)” value in the assay on human primary PMNs is 464.0 and 500.8 and 464.5 and 455.0 and 475.5 and 470.7. In assay [1], the “CD31 expression (endothelial cell marker)” value is reported as “+”, the E-sel expression result is reported as “+”, the ICAM-1 expression result was “+” and the P-sel expression entry was “+”. Moreover, the VCAM-1 expression result in assay [1] is given as “+”. For the same substance, the “Adhesion to fibrinogen or to ICAM-1 in lymphocytes” value with lymphocytes is on record as “did not induce adhesion”. Moreover, the “Neutrophil adhesion to ICAM-1, stimulus alone (Ctrl, no inhibitor)” value in the assay with human neutrophils is 490.4 ± 38.9 bound cells in 0.2 mm^2 and 475.5 ± 40.0 bound cells in 0.2 mm^2.
